From patent publication US20060106099A1, “Novel inhibitors of ubiquitin isopeptidases” (priority 2002, published 2006)

Key:
RKO-E6 cells [1] = tested on: RKO-E6 cells
Description: (§2) Cell viability was measured with MTT reagent as described in materials and methods.
(§3) Cell viability was detected by the MTT assay. Briefly, 1×10^5 cells were incubated per well of a sterile, 96-well assay plate with 0-60 μM of test compounds for 48 hours. MTT reagent was added to each well, final concentration of 0.5 mg/mL, and incubated for an additional 3 hours. The media was aspirated and remaining MTT reagent from each well and added 100 μL of HCl:isopropanol (1:24). The absorbance of each sample was measured at 405 nm.

RKO cells = assay: MTT cell viability assay, RKO cells; conditions: for cell death in RKO compared with RKO-E6 cells: 48 h, MTT, isogenic pair
HCT 116 +/+ cells = assay: MTT cell viability assay, HCT 116 p53 +/+ cells; conditions: 48 h, MTT; for cell death in HCT 116 +/+ compared with HCT 116 −/− cells: isogenic pair
p53 = p53 accumulation, ratio RKO-E6 cells/RKO cells (immunoblot, densitometry); type: cell-based, human; conditions: 6 h; etoposide 50 μM, MG115, NSC-302979, DBA 20 μM, others 60 μM
Method in brief: (§1)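 RKO-E6 cells exposed at 37° C for 6, 12 or 24 h to compound concentrations giving 80% cell death at 48 h; for p53, RKO and RKO-E6 cells treated 6 h. Lysates (12.5 μg protein) immunoblotted for ubiquitin or p53 with ECL detection; p53 quantified by densitometry as RKO-E6/RKO ratio.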

ubiquitin isopeptidases [2] = assay: Ubiquitin isopeptidase activity, z-LRGG-AMC substrate, lysates of treated RKO and HCT 116 cells; type: cell-based, human; conditions: cells treated 6, 20 or 60 μM, 12 h
Method in brief: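 RKO and HCT 116 cells were treated 12 h at 37° C with 6, 20 or 60 μM compound. Lysates at 0.5 mg/mL were pre-incubated with 30 μM MG115 (30 min, 4° C) to block proteasome, then given z-LRGG-AMC for 3 h at 37° C. Cleaved AMC was read fluorometrically.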

[3] = tested on: polyubiquitin conjugates in RKO-E6 cells; assay: Accumulation of polyubiquitin in RKO-E6 cells (immunoblot); type: cell-based, human; conditions: EC80 or 60 μM, 6-24 h
Method in brief: as §1

RKO-E6 cells [4] = assay: MTT cell viability assay, RKO-E6 cells; conditions: cell viability assay at 48 h, RKO-E6 cells
Description: as §2, §3

ubiquitin isopeptidases [5] = assay: Ubiquitin isopeptidase activity, Ub-PEST substrate, lysates of treated RKO and HCT 116 cells; type: cell-based, human; conditions: cells treated 6, 20 or 60 μM, 12 h
Method in brief: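 RKO and HCT 116 cells (6×10^5) were treated with 0–60 μM compound for 12 h at 37 °C, then lysed in HEPES/EDTA/CHAPS/5 mM ATP, pH 7.5. Lysates at 0.3 mg/mL protein were incubated with 50 μg/mL Ub-PEST for 45 min at 25 °C. Released 8.5 kDa ubiquitin was quantified by anti-ubiquitin western blot densitometry relative to vehicle (100%).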

[6] = tested on: cell lines with mutant/deleted p53; conditions: mean of 41-42 cell lines with mutant/deleted p53; read-out: Mutant p53 Mean LC50; cited from earlier work
HCT 116 −/− cells = assay: MTT cell viability assay, HCT 116 p53 −/− cells; conditions: read-out: Cytotoxic Potency (EC50) HCT −/−; 48 h, MTT

Structure (SMILES)	EC50 (RKO-E6 cells [1])	cell death in RKO compared with RKO-E6 cells (RKO cells)	cell death in HCT 116 +/+ compared with HCT 116 −/− cells (HCT 116 +/+ cells)	EC50 (HCT 116 +/+ cells; read-out: Cytotoxic Potency (EC50) HCT +/+)	ratio of p53 protein [RKO-E6 cells/RKO cells] (p53)	inhibition of z-LRGG-AMC hydrolysis by ubiquitin isopeptidases (ubiquitin isopeptidases [2])	cellular accumulation of polyubiquitin conjugates [3]	EC80, concentration that gave 80% cell death (RKO-E6 cells [4])	inhibition of isopeptidase cleavage of Ub-PEST (ubiquitin isopeptidases [5])	CC50 [6]	EC50 (HCT 116 −/− cells)	EC50 (RKO cells; read-out: EC50 in RKO cell lines, prostaglandins for comparison, comparison values in the text)
C=C1C(=O)C2=CC1CCC(=O)C1(C)CCC(OC(C)=O)C(C)(C)C1CC2O (centres unmarked) [NSC-302979, shikoccin]	1.4 ± 0.1 µM	caused cell death with equal potency and efficacy	caused cell death with equal potency	2.7 ± 0.2 µM	approached unity	inhibited ubiquitin isopeptidase activity	protein species with polyubiquitin conjugation accumulated in cells	3.5 µM	inhibited isopeptidase activity in a concentration dependent manner	66 µM	3.2 ± 0.2 µM	–
CCCCC[C@H](O)C/C=C1/C(=O)C=C[C@@H]1C/C=C\CCCC(=O)O [Δ12-PGJ2, Δ12-prostaglandin J2]	9.2 ± 1 µM	caused cell death with equal potency and efficacy	caused cell death with equal potency	–	approached unity	inhibited ubiquitin isopeptidase activity	protein species with polyubiquitin conjugation accumulated in cells	13.2 µM	inhibited isopeptidase activity in a concentration dependent manner	–	–	9 µM
